Values quoted from earlier work in US7723019B2, “Organic cation transporter preferentially expressed in hematopoietic cells and leukemias and uses thereof” (University of Kentucky Research Foundation, priority 2003, dated 2010).
Values joined by “and” are separate entries in the source; they are usually repeats but may differ in a detail not shown here. Identical values can stand only once. Like-named read-outs stand apart in the source and are kept apart here.

Assays:
OCTN2 (SLC22A5) = target: T1, OCTN2 (SLC22A5) (Homo sapiens, UniProt O76082)
T1 sequence (O76082 1-557): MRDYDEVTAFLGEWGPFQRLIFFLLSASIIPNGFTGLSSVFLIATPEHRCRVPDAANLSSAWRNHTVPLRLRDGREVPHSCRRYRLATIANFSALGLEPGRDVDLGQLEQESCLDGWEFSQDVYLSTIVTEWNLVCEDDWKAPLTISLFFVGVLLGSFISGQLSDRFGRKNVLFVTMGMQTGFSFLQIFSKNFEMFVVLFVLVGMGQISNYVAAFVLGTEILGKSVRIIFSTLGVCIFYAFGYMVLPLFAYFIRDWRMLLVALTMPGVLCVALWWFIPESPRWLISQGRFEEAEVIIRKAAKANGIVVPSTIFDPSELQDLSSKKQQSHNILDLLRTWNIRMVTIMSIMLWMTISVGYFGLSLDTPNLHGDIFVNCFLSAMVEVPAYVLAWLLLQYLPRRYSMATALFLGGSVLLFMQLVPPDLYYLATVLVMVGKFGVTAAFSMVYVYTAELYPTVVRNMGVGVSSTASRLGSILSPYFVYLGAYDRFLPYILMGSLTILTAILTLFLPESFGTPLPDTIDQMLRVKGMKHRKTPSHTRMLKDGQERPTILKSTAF

OCT2 (SLC22A2) = target: T2, OCT2 (SLC22A2) (Homo sapiens, UniProt O15244)
T2 sequence (O15244 1-555): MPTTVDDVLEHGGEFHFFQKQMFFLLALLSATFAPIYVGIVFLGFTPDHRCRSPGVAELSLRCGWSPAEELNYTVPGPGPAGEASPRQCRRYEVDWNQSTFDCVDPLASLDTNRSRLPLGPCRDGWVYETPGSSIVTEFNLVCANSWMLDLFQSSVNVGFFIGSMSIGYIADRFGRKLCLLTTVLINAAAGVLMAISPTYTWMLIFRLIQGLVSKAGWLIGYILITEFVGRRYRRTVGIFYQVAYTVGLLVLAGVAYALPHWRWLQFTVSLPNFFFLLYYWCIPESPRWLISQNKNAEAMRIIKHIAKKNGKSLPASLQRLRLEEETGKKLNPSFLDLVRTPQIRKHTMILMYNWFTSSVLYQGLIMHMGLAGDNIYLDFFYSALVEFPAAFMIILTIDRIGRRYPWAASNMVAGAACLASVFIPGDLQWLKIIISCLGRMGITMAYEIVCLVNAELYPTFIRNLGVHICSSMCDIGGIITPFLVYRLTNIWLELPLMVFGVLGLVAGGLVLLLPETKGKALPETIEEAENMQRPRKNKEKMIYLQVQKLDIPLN

OCTN1 (SLC22A4) = target: T3, OCTN1 (SLC22A4) (Homo sapiens, UniProt Q9H015); conditions: OCTN1, cell type Fibroblasts
T3 sequence (Q9H015 1-551): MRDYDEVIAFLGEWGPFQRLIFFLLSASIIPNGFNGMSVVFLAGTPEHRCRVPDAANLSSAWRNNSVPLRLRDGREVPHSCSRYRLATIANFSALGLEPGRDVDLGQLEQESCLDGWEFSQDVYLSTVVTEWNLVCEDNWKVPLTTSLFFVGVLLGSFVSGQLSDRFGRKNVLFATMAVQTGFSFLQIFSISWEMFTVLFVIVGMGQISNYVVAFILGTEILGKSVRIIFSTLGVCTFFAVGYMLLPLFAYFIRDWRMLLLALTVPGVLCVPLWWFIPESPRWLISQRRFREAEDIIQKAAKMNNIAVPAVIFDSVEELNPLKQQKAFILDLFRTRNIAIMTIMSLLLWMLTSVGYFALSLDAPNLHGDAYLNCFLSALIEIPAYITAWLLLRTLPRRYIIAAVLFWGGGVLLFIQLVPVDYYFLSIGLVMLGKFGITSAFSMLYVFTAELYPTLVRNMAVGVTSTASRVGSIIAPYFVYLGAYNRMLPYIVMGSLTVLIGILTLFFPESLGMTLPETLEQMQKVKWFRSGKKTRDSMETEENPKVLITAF

OCT1 (SLC22A1) = target: T4, OCT1 (SLC22A1) (Homo sapiens, UniProt O15245); conditions: OCT1, cell type Xenopus
T4 construct: host or cells: HeLa; Xenopus
T4 sequence (O15245 1-554): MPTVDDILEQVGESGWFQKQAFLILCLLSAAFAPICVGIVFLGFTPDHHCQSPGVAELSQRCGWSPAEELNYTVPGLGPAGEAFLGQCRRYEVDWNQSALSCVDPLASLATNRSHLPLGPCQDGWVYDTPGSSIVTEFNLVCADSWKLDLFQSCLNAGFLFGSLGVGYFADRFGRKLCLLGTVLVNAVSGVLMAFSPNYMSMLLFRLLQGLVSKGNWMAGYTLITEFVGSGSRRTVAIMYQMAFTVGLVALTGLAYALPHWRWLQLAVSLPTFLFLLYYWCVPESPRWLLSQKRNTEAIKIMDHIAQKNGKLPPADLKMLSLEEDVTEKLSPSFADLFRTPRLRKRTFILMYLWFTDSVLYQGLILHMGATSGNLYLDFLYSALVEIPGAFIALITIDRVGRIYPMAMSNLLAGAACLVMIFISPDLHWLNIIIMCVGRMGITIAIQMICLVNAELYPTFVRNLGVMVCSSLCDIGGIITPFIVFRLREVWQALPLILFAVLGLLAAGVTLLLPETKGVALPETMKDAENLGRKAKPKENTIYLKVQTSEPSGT

[1] = test system: reduced folate carrier (RFC); conditions: read-out: Km for MTX, approximately
[2] = test system: RFC1-transfected MTX^R ZR75 cell line; conditions: RFC1 transfection into transport-deficient MTX^R ZR75 cells, relative to control cell clones

CC(=O)O[C@H](CC(=O)[O-])C[N+](C)(C)C [Acetyl-L-carnitine]
KT (OCTN2 (SLC22A5); OCTN2, cell type HEK293): 8.5 µM

NC12CC3CC(CC(C3)C1)C2 [Amantadine]
KT (OCT2 (SLC22A2); OCT2, cell type Xenopus): 27 µM

C[N+](C)(C)C[C@@H](O)CC(=O)[O-] [D-Carnitine]
KT (OCTN2 (SLC22A5); OCTN2, cell type HEK293): 10.9 µM | KT (OCTN2 (SLC22A5); OCTN2, cell type Xenopus): 98 µM

NCCc1ccc(O)c(O)c1 [Dopamine]
KT (OCT2 (SLC22A2); OCT2, cell type HEK293): 330 µM | KT (OCT2 (SLC22A2); OCT2, cell type Xenopus): 390 µM

NCCc1c[nH]cn1 [Histamine]
KT (OCT2 (SLC22A2); OCT2, cell type Xenopus): 1300 µM

C[N+](C)(C)C[C@H](O)CC(=O)[O-] [L-Carnitine]
KT (OCTN2 (SLC22A5); OCTN2, cell type HEK293): 4.34 µM and 4.3 µM | KT (OCTN2 (SLC22A5); OCTN2, cell type JAR): 3.5 µM | KT (OCTN2 (SLC22A5); OCTN2, cell type Xenopus): 4.8 µM | KT (OCTN1 (SLC22A4)): 6.6 µM

C[n+]1ccc(-c2ccccc2)cc1 [MPP, 1-methyl-4-phenylpyridinium]
KT (OCT2 (SLC22A2); OCT2, cell type HEK293): 16 µM | KT (OCT3 (SLC22A3); OCT3, cell type HRPE): 47 µM | KT (OCT1 (SLC22A1)): 14.6 µM

CN(Cc1cnc2nc(N)nc(N)c2n1)c1ccc(C(=O)N[C@@H](CCC(=O)O)C(=O)O)cc1 [MTX, Methotrexate]
Km [1]: 0.8 to 26 µM | increase in 6-hour MTX uptake [2]: 20 fold | increase in sensitivity to MTX [2]: 250 fold

CC12CC3CC(C)(C1)CC(N)(C3)C2 [Memantine]
KT (OCT2 (SLC22A2); OCT2, cell type Xenopus): 34 µM

NC[C@H](O)c1ccc(O)c(O)c1 [Norepinephrine]
KT (OCT2 (SLC22A2); OCT2, cell type Xenopus): 1900 µM

NCCc1c[nH]c2ccc(O)cc12 [Serotonin]
KT (OCT2 (SLC22A2); OCT2, cell type Xenopus): 80 µM

CC[N+](CC)(CC)CC [TEA, tetraethylammonium]
KT (OCT3 (SLC22A3); OCT3, cell type HeLa): 2500 µM
